From US20220362230A1, “USE OF GLUTARIMIDE DERIVATIVE FOR OVERCOMING STEROID RESISTANCE AND TREATING DISEASES ASSOCIATED WITH ABERRANT INTERFERON GAMMA SIGNALING” ("CHEMIMMUNE THERAPEUTICS" LIMITED LIABILITY COMPANY, priority 2018, published 2022)

Key:
[1] = tested on: patients with bronchial asthma; experiment: Phase II clinical trial (PULM-XC8-02, NCT03450434), response to baseline inhaled corticosteroid therapy (FEV1); type: in vivo, human
Method: Thus, Compound is potentially useful for the therapy of diseases associated with the development of steroid resistance, in particular for the treatment of steroid-resistant asthma.
In the clinical trial, eligible patients were randomized 1:1:1:1 to one of four groups: • Compound 1 at a dose of 2 mg per day; • Compound 1 at a dose of 10 mg per day; • Compound 1 at a dose of 100 mg per day; and • Placebo.
(§1) During the study therapy phase, patients received Compound 1 or placebo for 12 weeks against the background of baseline steroid therapy with low doses of inhaled corticosteroids. Compound 1 or placebo was administered orally once a day, 30 minutes before breakfast.
Thus, one of the effects of the use of Compound 1 is the overcoming of the resistance to corticosteroids, which is the backbone of the baseline therapy of patients enrolled in the clinical trial.
(§2) To study the effect of the IFN-γ baseline level in patients with asthma, the results obtained in the clinical study were additionally analyzed; the patients' response to therapy was studied depending on their IFN-γ baseline level in the blood at the time of trial inclusion (determined by the Bio-Plex Pro Human Chemokine Panel Assay (Bio-Rad)).
The patients' response to baseline therapy in the groups of baseline steroid therapy and placebo decreased with an increase in the IFN-γ baseline level (FIG. 2). […] This fact indicates the overcoming of steroid resistance that can be caused, inter alia, by aberrant IFN-γ signaling.

IFN-γ = experiment: Phase II clinical trial, interferon-γ concentration in blood plasma; type: in vivo, human; conditions: with baseline therapy, compared with baseline therapy and placebo; regardless of IFN-γ level at inclusion
Method: as §1, §2
(§3) Moreover, in the clinical trial, Compound 1 was also analyzed for its effect on IFN-γ signal transduction. […] Thus, the suppression of steroid resistance induced by the use of Compound 1 could potentially be associated with an effect on the aberrant activity (signaling) of IFN-γ.

[2] = tested on: acute oxazolone-induced ulcerative colitis; experiment: Murine model of acute oxazolone-induced ulcerative colitis; type: in vivo, female balb/c mice; conditions: for The degree of large intestine wall damage, score: 72 hours after oxazolone, M ± m, n=10
Method: The activity of Compound 1 in a model of acute oxazolone-induced ulcerative colitis was studied using the standard method [Immunity. 2002. P. 629-638]. In the study, female balb/c mice (6-8 weeks old) were used. Compound I was administered intragastrically, three times: 1 hour, 25 hours, and 49 hours after rectal administration of oxazolone. The body weight of the animals was measured before and 24, 48 and 72 hours after administration of oxazolone. The intestinal wall damage was evaluated under a microscope 72 hours after administration of oxazolone, according to the following score scale: 0=no damage, 1=hyperemia, no ulcers, 2=hyperemia, thickening of the intestinal wall, no ulcers, 3=one ulcer without thickening of the intestinal wall, 4=2 or more sites of ulceration or inflammation, 5=2 or more serious sites of ulceration and inflammation, or one site of ulceration/inflammation, extending >1 cm along the length of the colon, and 6-10=damage covers>2 cm long the length of the colon, the score is increased by 1 for each additional 1 cm of involvement. All data were analyzed by descriptive statistics: arithmetic mean (M) and standard error of the arithmetic mean (m). The Shapiro-Wilk test was used to check the normality of the distribution of the obtained experimental data. A normal distribution was analyzed with 1-way ANOVA (with Dunnett's post-analysis) to assess intergroup differences. A non-normal distribution was analyzed with […] (with Tukey's post-analysis) to compare several groups. Differences were determined at a confidence level of 5%.

[3] = tested on: interferon-γ-dependent cytokine CXCL10 (interferon-gamma-induced protein IP10); experiment: Phase II clinical trial, CXCL10 concentration in blood plasma; type: in vivo, human; conditions: with baseline steroid therapy; patients with IFN-γ baseline level >100 pg/ml
Method: as §1, §2, §3

[4] = tested on: cough induced by inhalation of citric acid and IFN-γ; experiment: Guinea pig model of cough induced by inhalation of citric acid and IFN-γ; type: in vivo, guinea pigs of the Aguti line; conditions: for The number of coughing movements within 8 minutes: 7 hours before citric acid inhalation, M ± m, n=5
Method: The activity of Compound I in a model of cough in guinea pigs, which was induced by inhalation of citric acid and IFN-γ, was studied in accordance with the method [Am J Respir Crit Care Med. 2018. V. 198(7). P. 868-879].
In the study, guinea pigs of the Aguti line were used. All experimental animals were inhaled with a citric acid solution (0.3 M) prepared in physiological saline, for 8 minutes. The pathology control group and the groups receiving therapy were inhaled with IFN-γ (10 pg/kg) for 3 minutes at 7 hours before the inhalation of citrate. Compound 1 was administered intragastrically once, immediately after inhalation of IFN-γ, i.e. 7 hours before inhalation of the citric acid solution. The antitussive activity was evaluated by counting the number of coughing fits within 8 minutes from the start of inhalation of citric acid. All data were analyzed by descriptive statistics: arithmetic mean (M) and standard error of the arithmetic mean (m). The Shapiro-Wilk test was used to check the normality of the distribution of the obtained experimental data. A normal distribution was analyzed with 1-way ANOVA (with Dunnett's post-analysis) to assess intergroup differences. A non-normal distribution was analyzed with […] (with Tukey's post-analysis) to compare several groups. Differences were determined at a confidence level of 5%.

`O=C1CCCC(=O)N1CCc1cnc[nH]1` [Compound 1, 1-(2-(1H-imidazol-4-yl)ethyl)piperidine-2,6-dione] was tested, and the “Response to therapy (change in FEV1, week 12 vs. week 0)” value ([1]; 100 mg per day with baseline steroid therapy vs placebo, especially patients with IFN-γ level more than 100 pg/ml) was “significantly greater and clinically significant response to therapy”, the Clinical effect ([1]; 100 mg per day, 12 weeks, with baseline low-dose inhaled corticosteroids) was “clinically significant effect” and the “Number of patients with an increase in FEV1 by 100 ml or more (response to baseline steroid therapy)” value ([1]; baseline steroid therapy and Compound 1, 12 weeks, oral once a day, placebo group 13 out of 29) was 20 patients out of 29. For the same compound, the “Change in concentration of IFN-γ in blood plasma, week 12 vs week 0” value (IFN-γ) was “negative dynamics of IFN-γ concentrations”, the “The degree of large intestine wall damage, score” value (from here on “The degree”) ([2]; 0.3 mg/kg intragastrically x3) was 1.70 ± 0.30 score and the Body weight ([2]; 0.3 mg/kg, 24 hours after administration of oxazolone) was 17.9 ± 0.2 g. It also gave a Body weight ([2]; 0.3 mg/kg, 48 hours after administration of oxazolone) of 17.5 ± 0.3 g, a Body weight ([2]; 0.3 mg/kg, 72 hours after administration of oxazolone) of 16.9 ± 0.2 g and a Body weight ([2]; 0.3 mg/kg, before administration of oxazolone) of 19.0 ± 0.6 g. For the same compound, the “The degree” value ([2]; 3 mg/kg intragastrically x3) was 1.89 ± 0.31 score, the Body weight ([2]; 3 mg/kg, 24 hours after administration of oxazolone) was 17.9 ± 0.3 g and the Body weight ([2]; 3 mg/kg, 48 hours after administration of oxazolone) was 17.6 ± 0.2 g. For the same compound, the Body weight ([2]; 3 mg/kg, 72 hours after administration of oxazolone) was 16.7 ± 0.2 g, the Body weight ([2]; 3 mg/kg, before administration of oxazolone) was 18.7 ± 0.4 g and the “The degree” value ([2]; 30 mg/kg intragastrically x3) was 1.40 ± 0.16& score. For the same compound, the Body weight ([2]; 30 mg/kg, 24 hours after administration of oxazolone) was 18.8 ± 0.2& g, the Body weight ([2]; 30 mg/kg, 48 hours after administration of oxazolone) was 18.4 ± 0.4& g and the Body weight ([2]; 30 mg/kg, 72 hours after administration of oxazolone) was 18.4 ± 0.5& g. For the same compound, the Body weight ([2]; 30 mg/kg, before administration of oxazolone) was 19.8 ± 0.6 g, the “Effect on degree of damage of the colon wall” value ([2]; administered intragastrically) was “reduced the degree of damage of the colon wall” and the “Effect on weight loss in animals” value ([2]; administered intragastrically) was “prevented weight loss”. The “Intensity of action compared with reference steroid” value ([2]; murine model of ulcerative colitis) was “not inferior to prednisolone by intensity of action”, the “Change in concentration of CXCL10 (IP10) in blood plasma, week 12 vs week 0” value [3] was “suppressed the concentration of interferon-γ-dependent cytokine CXCL10” and the “The number of coughing movements within 8 minutes” value ([4]; 1.4 mg/kg intragastrically once) was 19.2 ± 2.7&. The “The number of coughing movements within 8 minutes” value ([4]; 14 mg/kg intragastrically once) was 18.4 ± 2.9& and the “Effect on number of coughing movements” value ([4]; administered intragastrically) was “reduced the number of coughing movements”.
With `C[C@]12C=CC(=O)C=C1CC[C@@H]1[C@@H]2C(=O)C[C@@]2(C)[C@H]1CC[C@]2(O)C(=O)CO` [Prednisone, reference compound] the Body weight ([2]; 10 mg/kg, 24 hours after administration of oxazolone) was 18.5 ± 0.4 g, the Body weight ([2]; 10 mg/kg, 48 hours after administration of oxazolone) was 17.9 ± 0.4 g and the Body weight ([2]; 10 mg/kg, 72 hours after administration of oxazolone) was 17.3 ± 0.6 g. For the same compound, the “The degree” value ([2]; 10 mg/kg) was 1.80 ± 0.25 score and the Body weight ([2]; 10 mg/kg, before administration of oxazolone) was 19.0 ± 0.4 g.
